From patent US7998460B2, “Prevention of deficits in neurogenesis with anti-inflammatory agents” (The Board of Trustees of the Leland Stanford Junior …, priority 2003, dated 2011)
Entries after “also recorded” stand apart in the source; their conditions may differ.

How the values were obtained:
hippocampal neurogenesis = assay: LPS-induced systemic inflammation, hippocampal neurogenesis, one-week BrdU labeling paradigm; type: in vivo, rat
Experimental: To determine the effects of inflammation on adult hippocampal neurogenesis, bacterial lipopolysaccharide (LPS) was injected into adult female rats to induce systemic inflammation. The intraperitoneal administration of LPS causes a peripheral inflammatory cascade that is transduced to the brain via IL-1β from the cerebral vasculature and causes a strong upregulation of central pro-inflammatory cytokine production. Following LPS exposure, rats were treated systemically with bromo-deoxyuridine (BrdU) for 6 days to label proliferating cells within the hippocampus. Animals were then sacrificed on the 7th day. The fate of the BrdU-labeled, proliferative cells was analyzed with immuno-fluorescent staining and confocal microscopy.
Control animals were given either vehicle (5% bicarbonate) injections i.p. or plain dog food. To ensure complete consumption of food and medication in the 2 month paradigm, rats were restricted to 80% of their ad lib intake.
LPS exposure. Bacterial lipopolysaccharide (LPS, Sigma, St Louis, Mo.) was administered in sterile saline by intraperitoneal injection at a dose of 1 mg/Kg one time. This caused mild sickness behavior (decreased grooming, decreased locomotor activity, increased piloerection) for approximately 2 days, resolving by the 3rd day. The dose of LPS chosen causes mild sickness behavior in rats that resolves within 1-2 days; the dose of LPS used to induce endotoxic shock is 10-fold higher than that used in the present study.
Immunocytochemistry and immunofluorescent staining. Free floating sections were immunostained as previously described using the following primary antibodies and working concentrations: mouse anti-NeuN (1:4, gift from R. Mullen); guinea pig-anti GFAP (1:800, Harlan, Indianapolis, Ind.); mouse anti-type III βtubulin (Tuj-1, 1:500, Berkeley Antibody Co., Richmond, Calif.); rabbit anti-NG2 (1:200, Chemicon, Temecula, Calif.); mouse anti-rat CD11b (1:200, Serotec, Oxford, U.K.); mouse anti-ED-1 (1:100, Research Diagnostics Inc., Flanders, N.J.); biotinylated-Lycopersicon esculentum (tomato) lectin (1:200, Vector, Burlingame, Calif.).
Confocal microscopy. All confocal microscopy was performed using a Zeiss 510 confocal microscope. Appropriate gain and black level settings were determined on control tissues stained with secondary antibodies alone. Upper and lower thresholds were always set using the range indicator function to minimize data loss through saturation.
Cell counting and unbiased stereology. All counts were limited to the hippocampal granule cell layer proper and a 50 μm border along the hilar margin that included the neurogenic subgranule zone. The proportion of BrdU cells displaying a lineage-specific phenotype was determined by scoring the co-localization of cell phenotype markers with BrdU using confocal microscopy. Split panel and z-axis analysis were used for all counting. All counts were performed using multi-channel configuration with a 40× objective and electronic zoom of 2. When possible, 100 or more BrdU-positive cells were scored for each marker per animal. Each cell was manually examined in its full “z”-dimension and only those cells for which the nucleus was unambiguously associated with the lineage-specific marker were scored as positive. The total number of BrdU-labeled cells per hippocampal granule cell layer and subgranule zone was determined using diaminobenzadine stained tissues. In a separate series, the total number of ED1-labeled cells per dentate gyrus was also determined using diaminobenzadine stained tissue. Stained BrdU-positive nuclei or ED1-positive cells were scored under light microscopy using Microbrightfield Stereo Investigator software and the Fractionator method. Overestimation was corrected using the Abercrombie method for nuclei with empirically determined average diameter of 13 μm within a 40 μm section.

[1] = Sickness behavior and weight loss after LPS in mice; type: in vivo, mouse; conditions: for effect of NSAID on LPS-induced sickness behavior and weight loss: oral NSAID course
From the text: LPS-induced transient illness is associated with mild but persistent memory impairment. Hippocampal neurogenesis, a phenomenon that persists throughout life in men and mice alike, has been linked to learning and memory by several groups. Manipulations that chronically deplete hippocampal neurogenesis produce concomitant impairments in cognition, particularly hippocampus-dependent memory. […] To determine whether LPS-induced illness affects learning and/or memory during either the acute recovery phase or in asymptomatic mice, a single 0 or 5 mg/kg injection of LPS was administered with daily subcutaneous saline injections over 4 days to maintain hydration and their behavior examined in locomotor chambers and/or the Morris water maze task either in the week following treatment or beginning 4 weeks after treatment when the decrease in net neurogenesis is most apparent.
Subjects. All mice used as subjects in this study were treated in accordance with the policies set forth by the Stanford Animal Care and Use Committee and NIH regarding the ethical use of animals for experimentation. CB57BI/6 mice (7 wks old upon arrival from -Taconic) were housed in groups of 4-5 in autoclaved shoebox cages under standard conditions and were given free access to autoclaved Prolab Mouse 3000 chow (PMI Nutrition International, St. Louis, Mo.) and autoclaved tap water. […] Louis, Mo.) to induce transient illness (Day 0) and daily subcutaneous (s.c.) isotonic saline (0.5 ml) injections (Days 0-3) to prevent illness-induced dehydration. The cell synthesis marker bromodeoxyuridine (BrdU; Sigma Aldrich, St. Louis, Mo.) was injected i.p. (50 mg/kg at a concentration of 10 mg/ml in freshly prepared isotonic saline) once per day for 6 days to label dividing cells, beginning Day 0 (2 h after LPS). The mice were anesthetized with ketamine/xylazine and killed at Days 7 or 28 (to assess hippocampal neurogenesis during illness and just before behavioral testing, respectively) or Day 80 (to measure hippocampal neurogenesis following behavioural testing) by perfusion with 4% paraformaldehyde. Brains were post-fixed overnight in perfusate, microtome sectioned at 40 μm through the hippocampus and stored in tissue cryoprotectant solution at −20° C. until processed immunohistochemically.

[2] = indomethacin 2.5 mg/kg i.p. twice each day with LPS
[3] = LPS 1 mg/Kg i.p. once, sacrifice on 7th day

| Compound | effect on density of activated microglia (ED1+) after LPS (hippocampal neurogenesis; [2]) | effect on distance from BrdU+ nucleus to nearest vessel after LPS (hippocampal neurogenesis; [2]) | effect on LPS-induced inhibition of neurogenesis (hippocampal neurogenesis; indomethacin 2.5 mg/kg i.p. twice each day, concurrently with LPS) | effect on neurogenesis in control animals (drug alone) (hippocampal neurogenesis; indomethacin 2.5 mg/kg i.p. twice each day, no LPS) | effect of NSAID on LPS-induced sickness behavior and weight loss ([1]; LPS 5 mg/kg) | effect of NSAID on LPS-induced sickness behavior and weight loss ([1]; LPS 5 mg/kg, listed as Indomethacin) | decrease in hippocampal neurogenesis (proportion of non-microglial BrdU+ cells co-expressing Dcx) (hippocampal neurogenesis; [3]) [%] | increase in the density of activated microglia (CD68/ED1-positive) in the dentate gyrus (hippocampal neurogenesis; [3]) [%] | days to recovery of body weight ([1]; LPS 5 mg/kg) [days] | days to recovery of body weight ([1]; LPS 7.5 mg/kg) [days] | days to recovery of body weight ([1]; LPS 10 mg/kg) [days] | onset of sickness behavior (hunching, piloerection, sweaty fur) ([1]; after LPS injection) [h] | day by which weight loss is fully restored ([1]; lowest LPS dose tested) [days] | loss of body weight ([1]; lowest LPS dose tested (titration 5-10 mg/kg)) | loss of body mass ([1]; within 2 d following LPS injection) |
| --- | --- | --- | --- | --- | --- | --- | --- | --- | --- | --- | --- | --- | --- | --- | --- |
| COc1ccc2c(c1)c(CC(=O)O)c(C)n2C(=O)c1ccc(Cl)cc1 [indomethacin] | decreases this inflammatory response | restores the vascular association | completely blocked; also recorded: restores neurogenesis | no effect | not significantly attenuated | not significantly affected | – | – | – | – | – | – | – | – | – |
| lipopolysaccharide [LPS] | – | – | – | – | – | – | 35 | 240 | 4 | 5 | 6 | 1 to 2 | ≤ 6 | roughly 20% | approximately 10% |
